Experimental data: PMC6364417, “Kinase inhibitor library screening identifies synergistic drug combinations effective in sensitive and resistant melanoma cells” (Journal of Experimental & Clinical Cancer Research : CR, 2019)

How the values were obtained:
Experiment in all cases: Kinase inhibitor library screening, PrestoBlue cell viability, 1 or 10 μM, 72 h
[1] = tested on: IGR37-XP cells (Vemurafenib-resistant); settings: for Cell viability in kinase inhibitor library screening, IGR37 XP, 10μΜ / Cell viability in kinase inhibitor library screening, IGR37 XP, 1μΜ / cell viability, IGR37 XP, 10μΜ / cell viability, IGR37 XP, 1μΜ: 72 h; for Cell viability in kinase inhibitor library screening, IGR37 XP, 1μΜ / cell viability, IGR37 XP, 1μΜ: in %; for viability at 1 µM / viability at 10 µM: Homo sapiens, IGR-37, 72 h; for viability at 1 µM: read-out: cell viability, IGR37 XP, 1μΜ; for viability at 10 µM: read-out: cell viability, IGR37 XP, 10μΜ
[2] = tested on: 501Mel-XP cells (Vemurafenib-resistant); settings: 72 h; for Cell viability in kinase inhibitor library screening, 501Mel XP, 1μΜ / Cell viability in kinase inhibitor library screening, 501Mel XP, 10μΜ / cell viability, 501Mel XP, 1μΜ / cell viability, 501Mel XP, 10μΜ: in %; for viability at 1 µM / viability at 10 µM: Homo sapiens; for viability at 1 µM: read-out: cell viability, 501Mel XP, 1μΜ; for viability at 10 µM: read-out: cell viability, 501Mel XP, 10μΜ
A375 cells (parental) = settings: for Cell viability in kinase inhibitor library screening, A375 Parental, 10μΜ / Cell viability in kinase inhibitor library screening, A375 Parental, 1μΜ / cell viability, A375 Parental, 1μΜ / cell viability, A375 Parental, 10μΜ: 72 h; for cell viability, A375 Parental, 1μΜ / cell viability, A375 Parental, 10μΜ: in %; for viability at 1 µM / viability at 10 µM: Homo sapiens, A-375, 72 h; for viability at 1 µM: read-out: cell viability, A375 Parental, 1μΜ; for viability at 10 µM: read-out: cell viability, A375 Parental, 10μΜ
[3] = tested on: A375-XP cells (Vemurafenib-resistant); settings: for Cell viability in kinase inhibitor library screening, A375 XP, 1μΜ / Cell viability in kinase inhibitor library screening, A375 XP, 10μΜ / cell viability, A375 XP, 1μΜ / cell viability, A375 XP, 10μΜ: 72 h; for cell viability, A375 XP, 1μΜ / cell viability, A375 XP, 10μΜ: in %; for viability at 1 µM / viability at 10 µM: Homo sapiens, A-375, 72 h; for viability at 1 µM: read-out: cell viability, A375 XP, 1μΜ; for viability at 10 µM: read-out: cell viability, A375 XP, 10μΜ
501Mel cells (parental) = settings: 72 h; for viability at 1 µM / viability at 10 µM: Homo sapiens; for viability at 1 µM: read-out: cell viability, 501Mel Parental, 1μΜ; for viability at 10 µM: read-out: cell viability, 501Mel Parental, 10μΜ
Summary of the method: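 Treatment: 72 h with inhibitor. Detection: PrestoBlue, plate reader. Output: viability as % untreated control. Replicates: duplicate minimum. Lines: parental plus Vemurafenib- or Dabrafenib-resistant derivatives.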

IGR37 cells (parental) = settings: for Cell viability in kinase inhibitor library screening, IGR37 Parental, 1μΜ / Cell viability in kinase inhibitor library screening, IGR37 Parental, 10μΜ / cell viability, IGR37 Parental, 1μΜ / cell viability, IGR37 Parental, 10μΜ: 72 h, in %; for viability at 1 µM / viability at 10 µM: Homo sapiens, IGR-37, 72 h; for viability at 1 µM: read-out: cell viability, IGR37 Parental, 1μΜ; for viability at 10 µM: read-out: cell viability, IGR37 Parental, 10μΜ
[4] = tested on: 501Mel-GP cells (Dabrafenib-resistant); settings: 72 h; for Cell viability in kinase inhibitor library screening, 501Mel GP, 1μΜ / Cell viability in kinase inhibitor library screening, 501Mel GP, 10μΜ / cell viability, 501Mel GP, 1μΜ / cell viability, 501Mel GP, 10μΜ: in %; for viability at 1 µM / viability at 10 µM: Homo sapiens; for viability at 1 µM: read-out: cell viability, 501Mel GP, 1μΜ; for viability at 10 µM: read-out: cell viability, 501Mel GP, 10μΜ
[5] = tested on: A375-GP cells (Dabrafenib-resistant); settings: for Cell viability in kinase inhibitor library screening, A375 GP, 1μΜ / Cell viability in kinase inhibitor library screening, A375 GP, 10μΜ / cell viability, A375 GP, 1μΜ / cell viability, A375 GP, 10μΜ: 72 h; for cell viability, A375 GP, 1μΜ / cell viability, A375 GP, 10μΜ: in %; for viability at 1 µM / viability at 10 µM: Homo sapiens, A-375, 72 h; for viability at 1 µM: read-out: cell viability, A375 GP, 1μΜ; for viability at 10 µM: read-out: cell viability, A375 GP, 10μΜ
[6] = tested on: IGR37-GP cells (Dabrafenib-resistant); settings: for Cell viability in kinase inhibitor library screening, IGR37 GP, 10μΜ / Cell viability in kinase inhibitor library screening, IGR37 GP, 1μΜ / cell viability, IGR37 GP, 10μΜ / cell viability, IGR37 GP, 1μΜ: 72 h; for Cell viability in kinase inhibitor library screening, IGR37 GP, 1μΜ / cell viability, IGR37 GP, 1μΜ: in %; for viability at 1 µM / viability at 10 µM: Homo sapiens, IGR-37, 72 h; for viability at 1 µM: read-out: cell viability, IGR37 GP, 1μΜ; for viability at 10 µM: read-out: cell viability, IGR37 GP, 10μΜ

| Compound | Cell viability in kinase inhibitor library screening, IGR37 XP, 10μΜ [1] | Cell viability in kinase inhibitor library screening, IGR37 XP, 1μΜ [1] | Cell viability in kinase inhibitor library screening, 501Mel XP, 1μΜ [2] | Cell viability in kinase inhibitor library screening, 501Mel XP, 10μΜ [2] | Cell viability in kinase inhibitor library screening, A375 Parental, 10μΜ (A375 cells (parental)) | Cell viability in kinase inhibitor library screening, A375 Parental, 1μΜ (A375 cells (parental)) | Cell viability in kinase inhibitor library screening, A375 XP, 1μΜ [3] | Cell viability in kinase inhibitor library screening, A375 XP, 10μΜ [3] | Cell viability in kinase inhibitor library screening, 501Mel Parental, 1μΜ (501Mel cells (parental); 501Mel Parental, 1μΜ, in %) | Cell viability in kinase inhibitor library screening, 501Mel Parental, 10μΜ (501Mel cells (parental); 501Mel Parental, in %) | Cell viability in kinase inhibitor library screening, IGR37 Parental, 1μΜ (IGR37 cells (parental)) | Cell viability in kinase inhibitor library screening, IGR37 Parental, 10μΜ (IGR37 cells (parental)) | Cell viability in kinase inhibitor library screening, 501Mel GP, 1μΜ [4] | Cell viability in kinase inhibitor library screening, 501Mel GP, 10μΜ [4] | Cell viability in kinase inhibitor library screening, A375 GP, 1μΜ [5] | Cell viability in kinase inhibitor library screening, A375 GP, 10μΜ [5] | Cell viability in kinase inhibitor library screening, IGR37 GP, 10μΜ [6] | Cell viability in kinase inhibitor library screening, IGR37 GP, 1μΜ [6] | further results |
| --- | --- | --- | --- | --- | --- | --- | --- | --- | --- | --- | --- | --- | --- | --- | --- | --- | --- | --- | --- |
| c1cncc(CN2CCC(n3ncc4c(N5CCOCC5)nc(-c5ccc6[nH]ccc6c5)nc43)CC2)c1 [WAY-600] | 4.5% | 84.1 | 56.9 | 1.0 | 22.3 | 84.4 | 76.7 | 16.9 | 86.8 | 3.0 | 93.5 | 26.3 | 72.3 | 4.3 | 82.4 | 21.9 | 18.4% | 95.3 | – |
| COc1cc2ncnc(Nc3ccc(O)c(Br)c3)c2cc1OC [WHI-P154] | – | – | – | – | – | – | – | – | – | – | – | – | – | – | – | – | – | – | cell viability, IGR37 XP, 10μΜ [1]: 36.2%; cell viability, IGR37 XP, 1μΜ [1]: 91.6; cell viability, 501Mel XP, 1μΜ [2]: 89.8; cell viability, 501Mel XP, 10μΜ [2]: 63.6; cell viability, A375 Parental, 1μΜ (A375 cells (parental)): 98.9; cell viability, A375 Parental, 10μΜ (A375 cells (parental)): 86.7; cell viability, A375 XP, 1μΜ [3]: 105.6; cell viability, A375 XP, 10μΜ [3]: 90.7; cell viability, 501Mel Parental, 1μΜ (501Mel cells (parental); 501Mel Parental, 1μΜ, in %): 97.4; cell viability, 501Mel Parental, 10μΜ (501Mel cells (parental); 501Mel Parental, in %): 93.8; cell viability, IGR37 Parental, 1μΜ (IGR37 cells (parental)): 97.1; cell viability, IGR37 Parental, 10μΜ (IGR37 cells (parental)): 93.0; cell viability, 501Mel GP, 1μΜ [4]: 99.5; cell viability, 501Mel GP, 10μΜ [4]: 77.2; cell viability, A375 GP, 1μΜ [5]: 96.6; cell viability, A375 GP, 10μΜ [5]: 85.7; cell viability, IGR37 GP, 10μΜ [6]: 72.3%; cell viability, IGR37 GP, 1μΜ [6]: 94.4 |
| C[C@H](NC(=O)/C(C#N)=C/c1cccc(Br)n1)c1ccccc1 [WP1066] | – | – | – | – | – | – | – | – | – | – | – | – | – | – | – | – | – | – | viability at 1 µM [1]: 92.4%; viability at 10 µM [1]: 3.2%; viability at 1 µM [2]: 91.3%; viability at 10 µM [2]: -0.0613%; viability at 1 µM (A375 cells (parental)): 106%; viability at 10 µM (A375 cells (parental)): 5.4%; viability at 1 µM [3]: 103%; viability at 10 µM [3]: 6.7%; viability at 1 µM (501Mel cells (parental)): 96.9%; viability at 10 µM (501Mel cells (parental)): 0.369%; viability at 1 µM (IGR37 cells (parental)): 110%; viability at 10 µM (IGR37 cells (parental)): 0.9%; viability at 1 µM [4]: 102%; viability at 10 µM [4]: 1.2%; viability at 1 µM [5]: 92.5%; viability at 10 µM [5]: 4.5%; viability at 1 µM [6]: 92.6%; viability at 10 µM [6]: 5.1% |
| COC(=O)Nc1ccc(-c2nc(N3CCOCC3)c3cnn(C4CCN(C(=O)OC)CC4)c3n2)cc1 [WYE-354] | 10.6% | 82.2 | 63.3 | 8.7 | 24.6 | 84.7 | 76.7 | 19.6 | 85.1 | 21.3 | 82.1 | 28.9 | 76.5 | 16.5 | 80.7 | 21.5 | 31.6% | 85.9 | – |
| COC(=O)Nc1ccc(-c2nc(N3CCOCC3)c3cnn(C4CCN(Cc5cccnc5)CC4)c3n2)cc1 [WYE-687] | 7% | 62.5 | 83.5 | 7.5 | 21.5 | 74.1 | 59.8 | 19.2 | 65.3 | 9.6 | 75.9 | 26.2 | 55.7 | 10.7 | 67.7 | 19.9 | 24.9% | 77.7 | – |
| CNC(=O)Nc1ccc(-c2nc(N3CC4CCC(C3)O4)c3cnn(C4CCC5(CC4)OCCO5)c3n2)cc1 [WYE-125132] | 12.8% | 30.9 | 18.5 | 5.5 | 19.3 | 22.3 | 19.4 | 17.0 | 17.3 | 5.8 | 27.6 | 22.1 | 16.3 | 8.1 | 22.4 | 15.7 | 34% | 43.3 | – |
| C=CC(=O)Nc1cccc(Oc2nc(Nc3ccc(N4CCN(C)CC4)cc3)ncc2Cl)c1 [WZ3146] | – | – | – | – | – | – | – | – | – | – | – | – | – | – | – | – | – | – | cell viability, IGR37 XP, 10μΜ [1]: 7%; cell viability, IGR37 XP, 1μΜ [1]: 73.3; cell viability, 501Mel XP, 1μΜ [2]: 78.6; cell viability, 501Mel XP, 10μΜ [2]: 0.0384; cell viability, A375 Parental, 1μΜ (A375 cells (parental)): 87.2; cell viability, A375 Parental, 10μΜ (A375 cells (parental)): 30.7; cell viability, A375 XP, 1μΜ [3]: 94.3; cell viability, A375 XP, 10μΜ [3]: 20.1; cell viability, 501Mel Parental, 10μΜ (501Mel cells (parental); 501Mel Parental, in %): 1.1; cell viability, IGR37 Parental, 1μΜ (IGR37 cells (parental)): 96.7; cell viability, IGR37 Parental, 10μΜ (IGR37 cells (parental)): 56.4; cell viability, 501Mel GP, 1μΜ [4]: 102.6; cell viability, 501Mel GP, 10μΜ [4]: 53.7; cell viability, A375 GP, 1μΜ [5]: 82.9; cell viability, A375 GP, 10μΜ [5]: 22.9; cell viability, IGR37 GP, 10μΜ [6]: 39%; cell viability, IGR37 GP, 1μΜ [6]: 92.8 |
| C=CC(=O)Nc1cccc(Oc2nc(Nc3ccc(N4CCN(C)CC4)cc3OC)ncc2Cl)c1 [WZ4002] | – | – | – | – | – | – | – | – | – | – | – | – | – | – | – | – | – | – | viability at 1 µM [1]: 85.2%; viability at 10 µM [1]: 1.4%; viability at 1 µM [2]: 104%; viability at 10 µM [2]: -0.3%; viability at 1 µM (A375 cells (parental)): 103%; viability at 10 µM (A375 cells (parental)): 23.8%; viability at 1 µM [3]: 104%; viability at 10 µM [3]: 6%; viability at 1 µM (501Mel cells (parental)): 107%; viability at 10 µM (501Mel cells (parental)): -0.0492%; viability at 1 µM (IGR37 cells (parental)): 101%; viability at 10 µM (IGR37 cells (parental)): 2%; viability at 1 µM [4]: 109%; viability at 10 µM [4]: -0.074%; viability at 1 µM [5]: 96.3%; viability at 10 µM [5]: 3.9%; viability at 1 µM [6]: 91.8%; viability at 10 µM [6]: 16.7% |
